This is an account of results in PMC7128415 (Journal of Clinical Virology, 2004).

Values after ≈ are worked out from the molar mass of the structure shown. Where two headings read alike, the source gives them in different places.

Data set [1] relates to SARS coronavirus.
The next data set is described as follows: in vitro. Particulars: rhesus monkey.
In the next data set the test system is HIV-1. Particulars: cited from earlier work.
Data set [2] has as its system SARS coronavirus. Put plainly: microbe, parasite or virus in culture. Particulars: Severe acute respiratory syndrome coronavirus, FRhK-4, 48 h, read-out: EC50 at 48 h.
Data set [3] relates to HIV-1 reverse transcriptase. Conditions: cited from earlier work.
In data set [4] the test system is SARS coronavirus. It is filed as cell-based.
The subject of data set [5] is SARS coronavirus. The data set is described as follows: microbe, parasite or virus in culture. It counts as cell-based. Particulars: Severe acute respiratory syndrome coronavirus, Vero, read-out: EC50 (plaque reduction assay). (Plaque reduction counts the foci of infection that form in a cell layer.)
For data set [6] the following is noted: human, in vivo, po.
For data set [7] the following is noted: in vivo, cited from earlier work.
A further data set deals with rhinovirus. Particulars: in vivo; cited from earlier work.
In the next data set the test system is genital herpes. Conditions: in vivo; cited from earlier work.
In data set [8] the test system is rhinovirus, coronavirus, and respiratory syncytial virus. Conditions: in vivo; cited from earlier work.
For a further data set, the system named is CMV. Conditions: human, in vivo; cited from earlier work.
The subject of the next data set is various viruses. Conditions: cited from earlier work.
The next data set deals with SARS-associated virus. Conditions: cited from earlier work.

Take `O=C(O)P(=O)(O)O` [foscarnet]: the “inhibitory activities in initial screening” value in the data set with SARS coronavirus [1] is listed as “did not reveal inhibitory activities”.

Usually EC50 stands for the concentration that produces a half-maximal response. Consider `O=C(O)[C@H]1O[C@@H](Oc2cc3oc(-c4ccccc4)cc(=O)c3c(O)c2O)[C@H](O)[C@@H](O)[C@@H]1O` [Baicalin, baicalin], for which, in the data set “in vitro”, the CC50 is > 100 µg/mL. In the data set on HIV-1, the Antiviral effect result is “Inhibition of HIV-1” and the “inhibition of HIV-1” value is given as “shown to inhibit HIV-1”. For the same molecule, in the data set on SARS coronavirus [2], the EC50 is 12.5 to 25 µg/mL (≈ 28 to 56 µM). In addition, in the data set with SARS coronavirus [1], the “EC50 at 48 h” value worked out at 12.5 µg/mL (≈ 28 µM), the “SI = CC50/EC50 at 48 h” value is reported as >4 to 8, the antiviral activities result is recorded as “detectable antiviral activities” and the antiviral activity result is on record as “showed antiviral activity”. Besides, in the data set on SARS coronavirus [1], the “inhibitory activities by neutralization tests” value is on record as “detectable inhibitory activities”. The “inhibition of HIV-1 reverse transcriptase” value in data set [3] is given as “known to inhibit HIV-1 reverse transcriptase”. The “activity in Vero-E6 cell line compared with fRhK-4” value (from here on “activity … compared with fRhK-4”) in the data set on SARS coronavirus [4] is reported as “less active”. Also, in the data set with SARS coronavirus [5], the EC50 stood at 11 µg/mL (≈ 24.6 µM). In data set [6], this molecule returned a serum concentration of 470 ng/mL. The “Serum level (after oral administration), Cmax” value in data set [7] (human, po) is “Cmax = 60 ng/ml (189.8 mg per person, in human). The amount (i.e., 189.8 mg per person) used for the experiment is very low”. For the same molecule, in data set [7] (human), the “Half life (in humans)” value is “∼3 h”. Also, the “Serum level (after intravenous administration), Cmax” value in data set [7] is reported as “Cmax = 74 μg/ml (360 mg per person)”.

For `Nc1nc(NC2CC2)c2ncn([C@H]3C=C[C@@H](CO)C3)c2n1` [abacavir], in the data set on SARS coronavirus [1], the “inhibitory activities in initial screening” value is listed as “did not reveal inhibitory activities”.

Consider interferon-alpha, for which the “protection against rhinovirus-induced common cold” value in the data set on rhinovirus is given as “protective”. Besides, the “reduction in symptoms or lesion duration of genital herpes” value in the data set on genital herpes is “did not produce a consistent reduction”. Moreover, the “protection against experimental human infection” value in data set [8] was “protect”. In addition, the “preventing CMV infections or treating CMV pneumonia” value with CMV is listed as “not effective”.

As for `Nc1nc(O)c2ncn(COC(CO)CO)c2n1` [ganciclovir], the “inhibitory activities in initial screening” value in the data set with SARS coronavirus [1] is listed as “did not reveal inhibitory activities”.

Turning to `O=C(/C=C/c1ccc(O)c(O)c1)O[C@@H]1C[C@](O)(C(=O)O)C[C@@H](O)[C@H]1O` [Chlorogenic acid, chlorogenic acid], the “inhibitory activities in initial screening” value in the data set on SARS coronavirus [1] is reported as “not detectable”. Moreover, in the data set with various viruses, the Antiviral effect entry was “Inhibition of various viruses”. Besides, the “Serum level (after intravenous administration), Cmax” value in data set [7] is recorded as “Cmax = 34 μg/ml (24 mg per person)”.

`Cc1ccnc2c1NC(=O)c1cccnc1N2C1CC1` [nevirapine]: the “inhibitory activities in initial screening” value in the data set on SARS coronavirus [1] is given as “did not reveal inhibitory activities”.

`Nc1ccn(C[C@@H](CO)OCP(=O)(O)O)c(=O)n1` [cidofovir]: the “inhibitory activities in initial screening” value in the data set on SARS coronavirus [1] is “did not reveal inhibitory activities”.

As for `CC(N)C12CC3CC(CC(C3)C1)C2` (stereo not shown) [Rimantadine, rimantadine], in the data set “in vitro”, the CC50 is 64 µg/mL (≈ 357 µM). The EC50 in the data set with SARS coronavirus [2] was in the range of 8 to 16 µg/mL (≈ 44.6 to 89.2 µM). For the same molecule, in the data set with SARS coronavirus [1], the “EC50 at 48 h” value was found to be 16 µg/mL (≈ 89.2 µM), the antiviral activities result is on record as “detectable antiviral activities”, the antiviral activity result is given as “showed antiviral activity” and the “inhibitory activities by neutralization tests” value is “detectable inhibitory activities”. Also, in the data set on SARS coronavirus [4], the “activity … compared with fRhK-4” value is recorded as “more active”. For the same molecule, in the data set on SARS coronavirus [5], the EC50 stood at 7 µg/mL (≈ 39 µM).

`Cc1cn([C@H]2C[C@H](N=[N+]=[N-])[C@@H](CO)O2)c(=O)[nH]c1=O` [zidovudine]: the “inhibitory activities in initial screening” value in the data set with SARS coronavirus [1] is given as “did not reveal inhibitory activities”.

As for `Nc1nc2c(ncn2COCCO)c(=O)[nH]1` [acyclovir], the “inhibitory activities in initial screening” value in the data set on SARS coronavirus [1] was “did not reveal inhibitory activities”.

For the molecule `NC12CC3CC(CC(C3)C1)C2` [amantadine], in the data set on SARS coronavirus [1], the “inhibitory activities in initial screening” value is listed as “did not reveal inhibitory activities”.

Take `NC(=O)c1ncn([C@@H]2O[C@H](CO)[C@@H](O)[C@H]2O)n1` [Ribavirin, ribavirin]: in “in vitro”, the CC50 was > 1000 µg/mL. For the same molecule, in the data set with SARS coronavirus [1], the “SI = CC50/EC50 at 48 h” value is given as 5 to >80, the antiviral activities result is reported as “detectable antiviral activities”, the antiviral activity entry is listed as “showed antiviral activity” and the “inhibitory activities by neutralization tests” value is listed as “detectable inhibitory activities”. Further, the “activity … compared with fRhK-4” value in the data set on SARS coronavirus [4] is recorded as “less active”. Moreover, in the data set on SARS coronavirus [5], the EC50 is 50 µg/mL (≈ 205 µM).

In “in vitro”, `Cc1cccc(C)c1OCC(=O)N[C@@H](Cc1ccccc1)[C@@H](O)C[C@H](Cc1ccccc1)NC(=O)[C@H](C(C)C)N1CCCNC1=O` [Lopinavir, lopinavir] came in with a CC50 of 32 µg/mL (≈ 50.9 µM). In addition, the EC50 in the data set with SARS coronavirus [2] fell in the range of 1 to 4 µg/mL (≈ 1.59 to 6.36 µM). Moreover, in the data set on SARS coronavirus [1], the antiviral activities result is “detectable antiviral activities”, the antiviral activity result is recorded as “showed antiviral activity” and the “inhibitory activities by neutralization tests” value is given as “detectable inhibitory activities”. The “activity … compared with fRhK-4” value in the data set on SARS coronavirus [4] is “less active”. For the same molecule, in the data set with SARS coronavirus [5], the EC50 amounted to 6 µg/mL (≈ 9.54 µM).

Consider `CC(C)c1nc(CN(C)C(=O)N[C@H](C(=O)N[C@@H](Cc2ccccc2)C[C@H](O)[C@H](Cc2ccccc2)NC(=O)OCc2cncs2)C(C)C)cs1` [ritonavir], for which the “inhibitory activities in initial screening” value with SARS coronavirus [1] is reported as “did not reveal inhibitory activities”.

As for `Cc1cn([C@H]2C=C[C@@H](CO)O2)c(=O)[nH]c1=O` [stavudine], the “inhibitory activities in initial screening” value with SARS coronavirus [1] is given as “did not reveal inhibitory activities”.

Regarding `CC1(C)[C@@H](O[C@H]2O[C@H](C(=O)O)[C@@H](O)[C@H](O)[C@H]2O[C@@H]2O[C@H](C(=O)O)[C@@H](O)[C@H](O)[C@H]2O)CC[C@]2(C)[C@H]3C(=O)C=C4[C@@H]5C[C@@](C)(C(=O)O)CC[C@]5(C)CC[C@@]4(C)[C@]3(C)CC[C@@H]12` [Glycyrrhizin, glycyrrhizin], in “in vitro”, the CC50 was > 400 µg/mL. Besides, in the data set on SARS coronavirus [2], the EC50 is > 400 µg/mL. In the data set with SARS coronavirus [1], the antiviral activity entry is on record as “showed antiviral activity” and the “inhibitory activities in initial screening” value was “not detectable”. Moreover, the “activity … compared with fRhK-4” value in the data set on SARS coronavirus [4] is on record as “more active”. Moreover, in the data set with SARS-associated virus, the Antiviral effect entry is “Inhibition of SARS-associated virus”, the “activity in Vero-E6 cell lines” value is on record as “reported to be active” and the “antiviral activity against SARS coronavirus” value is “significant antiviral activity”. Besides, the “Half life (in humans)” value in data set [7] (human) was “∼10 h”. The “Serum level (after intravenous administration), Cmax” value in [7] was “Cmax = 80 μg/ml (200 mg per person)”.

With `C[C@H]1[C@H](OC(=O)CCC(=O)O)O[C@@H]2O[C@@]3(C)CC[C@H]4[C@H](C)CC[C@@H]1[C@@]24OO3` [artesunate], the “inhibitory activities in initial screening” value in the data set on SARS coronavirus [1] is “not detectable”.

B1: Interferon-gamma: Interferon-gamma, reported in the literature (protein, UniProt P01579 24-161, looked up)
Interferon gamma: QDPYVKEAENLKKYFNAGHSDVADNGTLFLGILKNWKEESDRKIMQSQIVSFYFKLFKNFKDDQSIQKSVETIKEDMNVKFFNSNKKKRDDFEKLTNYSVTDLNVQRKAIHELIQVMAELSPAAKTGKRKRSQMLFRG
As to B1, the “antiviral activity against SARS coronavirus” value in the data set with SARS-associated virus was “not to possess antiviral activity”.
